Measured values taken from patent US8080644B2, “Oligonucleotide analogues” (Exiqon A/S, priority 1997, dated 2011).
Strand notation (5' to 3'): a small letter for the sugar, then the base; units joined by * are phosphorothioate-linked, units joined directly phosphodiester-linked; [ ] holds rarer units or linkages, { } end groups; capitals alone tell only the bases. V = LNA monomer of structure V, bold; X = bicyclic LNA-type nucleotide of structure X in the publication's (LNA marked in bold); l = locked nucleic acid (LNA); d = 2'-deoxy (DNA)

Columns and labels:
5′-(AAAAAAAAAAAAAA)-3′ = assay: Tm of duplex (spectrophotometric melting curves); type: binding; settings: vs RNA 5′-(AAAAAAAAAAAAAA)-3′; 10 mM Na2HPO4 pH 7.0, 100 mM NaCl, 0.1 mM EDTA
Protocol: (§1) Thermostability of oligonucleotides containing monomers of formula V, X, Y and Z^T, Z^U, Z^G, Z^C, Z^A, Z^MeC. The thermostability of the LNA modified oligonucleotides were determined spectrophotometrically using a spectrophotometer equipped with a thermoregulated Peltier element. Hybridisation mixtures of 1 ml were prepared containing either of 3 different buffers (10 mM Na2HPO4, pH 7.0, 100 mM NaCl, 0.1 mM EDTA; 10 mM Na2HPO4 pH 7.0, 0.1 mM EDTA; 3M tetramethylammoniumchlorid (TMAC), 10 mM Na2HPO4, pH 7.0, 0.1 mM EDTA) and equimolar (1 μM or 1.5 μM) amounts of the different LNA modified oligonucleotides and their complementary or mismatched DNA or RNA oligonucleotides. Identical hybridisation mixtures using the unmodified oligonucleotides were prepared as references. The Tm's were obtained as the first derivative of the melting curves. FIG. 2 illustrates the monomeric LNAs used. The nomenclature V, X, Y and Z^T, Z^U, Z^G, Z^C, Z^A, Z^MeC refer to structures V, X, Y and Z of FIG. 2. In the tables, the nucleobases of the LNA monomers are indicated. Furthermore, for the thio and amino variants of the LNA structure Z of the last two tables, the nomenclature used is, e.g., Z^TS and Z^TNH, respectively.

5′-d(AAAAAAAAAAAAAA)-3′ = assay: Tm of duplex (spectrophotometric melting curves); type: binding; settings: vs 5′-d(AAAAAAAAAAAAAA)-3′; 10 mM Na2HPO4 pH 7.0, 100 mM NaCl, 0.1 mM EDTA
Protocol: as §1

Row | Substance | Tm (° C.) Na2HPO4/NaCl/EDTA (5′-(AAAAAAAAAAAAAA)-3′) | Tm (° C.) Na2HPO4/NaCl/EDTA (5′-d(AAAAAAAAAAAAAA)-3′)
1 | 5′-d(TTTTTTTTTTTTTT)-3′ (SEQ ID NO: 80): unmodified poly-T oligonucleotide (Table 1, 42 and 43) (unmodified DNA) [reference compound] | 32 °C | 36 °C
2 | 5′-d(TTTTTTTTTTTTTT)-3′ (SEQ ID NO: 83): partly modified poly-T oligonucleotide with Z^T (44, 45) (DNA dTdTdTdTdTdTlTdTdTdTdTdTdTdT) | 32 °C | 36 °C
3 | 5′-d(TTTTTTTTTTTTTT)-3′ (SEQ ID NO: 86): partly modified poly-T oligonucleotide with Z^T (46, 47) (DNA dTdTdTdTdTdTlTlTdTdTdTdTdTdT) | 40 °C | 34 °C
4 | 5′-d(TTTTTTTTTTTTTT)-3′ (SEQ ID NO: 89): partly modified poly-T oligonucleotide with Z^T (48, 49) (DNA dTdTdTdTdTlTlTlTlTdTdTdTdTdT) | 52 °C | 42 °C
5 | 5′-d(TTTTTTTTTTTTTT)-3′ (SEQ ID NO: 92): partly modified poly-T oligonucleotide with Z^T (50, 51) (DNA dTdTdTdTlTdTlTdTlTdTlTdTdTdT) | 53 °C | 47 °C
6 | 5′-d(TTTTTTTTTTTTTT)-3′ (SEQ ID NO: 98): partly modified poly-T with monomer V (sugars from the 5' end d7 V1 d6, backbone not given here) | 27 °C | 32 °C
7 | 5′-d(TTTTTTTTTTTTTT)-3′ (SEQ ID NO: 101): partly modified poly-T with monomer V (sugars from the 5' end d6 V2 d6, backbone not given here) | 28 °C | 31 °C
8 | 5′-d(TTTTTTTTTTTTTT)-3′ (SEQ ID NO: 104): partly modified poly-T with monomer V (sugars from the 5' end d6 V1 d1 V1 d5, backbone not given here) | 23 °C | 30 °C
9 | 5′-d(TTTTTTTTTTTTTT)-3′ (SEQ ID NO: 107): partly modified poly-T with monomer V (sugars from the 5' end d5 V4 d5, backbone not given here) | 31 °C | 23 °C
10 | 5′-d(TTTTTTTTTTTTTT)-3′ (SEQ ID NO: 110): partly modified poly-T with monomer V (sugars from the 5' end ddddVdVdVdVddd, backbone not given here) | 16 °C | 23 °C
11 | 5′-d(TTTTTTTTTTTTTT)-3′ (SEQ ID NO: 117): poly-T containing X^T (sugars from the 5' end d7 X1 d6, backbone not given here) | 23 °C | 23 °C
12 | 5′-d(TTTTTTTTTTTTTT)-3′ (SEQ ID NO: 120): poly-T containing X^T (sugars from the 5' end d6 X2 d6, backbone not given here) | 23 °C | 19 °C
13 | 5′-d(TTTTTTTTTTTTTT)-3′ (SEQ ID NO: 123): poly-T containing X^T (sugars from the 5' end d6 X1 d1 X1 d5, backbone not given here) | 15 °C | 9 °C
14 | 5′-d(TTTTTTTTTTTTTT)-3′ (SEQ ID NO: 126): poly-T containing X^T (sugars from the 5' end d5 X4 d5, backbone not given here) | 14 °C | 5 °C
